Results taken from patent US11225505B2, “Antimicrobial polymyxin derivative compounds” (MONASH UNIVERSITY, priority 2015, dated 2022).
In brackets after ≈: the same amount, converted by molar mass. Where a SMILES comes first, the peptide text is derived from it. Bridges are numbered along the chain shown (N, C = ends). [ ]: non-standard residue; d: D form. The star is where a group is joined. X1 = O=C(c1ncc(Cl)cc1Cl)*; Dab = NCC[C@H](N)C(=O)O; Abu = CC[C@H](N)C(=O)O; Dap = NC[C@H](N)C(=O)O

Legend:
[1] = tested on: Acinetobacter baumannii FADDI-AB030; experiment: microbe, parasite or virus in culture; assay type: cell-based; conditions: FADDI-AB030
In short: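 Broth microdilution MIC in cation-adjusted Mueller-Hinton broth per CLSI M100-S24; lipopeptides tested as TFA salts. FADDI-AB030 is a multidrug-resistant clinical isolate. Polymyxin B sulphate served as control.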

mouse kidney = conditions: in vivo, 180 mg/kg
Excerpt: Lesions were rated as follows: mild acute tubular damage with tubular dilation, prominent nuclei and a few pale tubular casts (Grade 1); severe acute tubular damage with necrosis of tubular epithelial cells and numerous tubular casts (Grade 2); acute cortical necrosis/infarction of tubules and glomeruli with or without papillary necrosis (Grade 3). The grades were given the following scores: grade 1=1, grade 2=4, and grade 3=10. The percentage of area of the kidney slice showing histological damage was scored as follows: <1%=0, 1 to <5%=1, 5 to <10%=2, 10 to <20%=3, 20 to <30%=4, 30 to <40%=5, and >40%=6. The overall kidney histological score was calculated as the product of the percentage score and grade score. These scores were then expressed as a semiquantitative score (Kidney Histological Score) on a scale of 0 to +5 for renal histological changes. […]
Lung infection was produced as follows. […] Bacterial burdens in lungs were determined at 2 h after inoculation (untreated controls) and 24 h later (untreated controls and compound-treated mice). […] The bacterial colonies on the agar plate were counted and the log10 CFU/lung in each mouse was calculated (FIG. 1).
The right kidney from each of the treated animals was removed and assessed for histological damage as described for Example 3. […]

Which Minimum inhibitory concentration [1] does the source give for `CC[C@@H]1NC(=O)[C@@H](CC(C)C)NC(=O)[C@H](CCN)NC(=O)[C@@H](NC(=O)[C@H](CN)NC(=O)[C@@H](NC(=O)[C@H](CCN)NC(=O)c2ncc(Cl)cc2Cl)[C@@H](C)O)CCNC(=O)[C@H]([C@@H](C)O)NC(=O)[C@H](CCN)NC(=O)[C@H](CCN)NC1=O` [Compound 1] (X1-[Dab]T[Dap][Dab][Dab][dL][Abu][Dab][Dab]T; lactam 4-C) here?
The Minimum inhibitory concentration was 1 µg/mL (≈ 0.861 µM).

What about the “histological damage to the kidneys (in words)” value (mouse kidney) of the same molecule?
The value was “no histological damage”.
